The conditions of data set [1]: 101 kPa, Liquid.
Data set [2] is described as follows: xn = mol fraction of the nth substance listed. The following applies: 101 kPa, Liquid, x1 = 1.

± gives the expanded uncertainty stated by the source.

`OCCOCCO` [diethylene glycol]: the kinematic viscosity worked out at 2.76e-05 ± 1.2e-06 m2/s in data set [1] (298.15 K); 2.13e-05 ± 9e-07 m2/s in data set [1] (303.15 K); 1.68e-05 ± 7e-07 m2/s in data set [1] (308.15 K); 1.45e-05 ± 6e-07 m2/s in data set [1] (313.15 K); 1.12e-05 ± 5e-07 m2/s in data set [1] (318.15 K). Further, the mass density in data set [1] (298.15 K) amounted to 1113 ± 2.9 kg/m3; in data set [1] (303.15 K) it was 1109.2 ± 3 kg/m3; in data set [1] (308.15 K), 1106.1 ± 3.1 kg/m3; in data set [1] (313.15 K), 1103 ± 3.2 kg/m3; in data set [1] (318.15 K), 1099.3 ± 3.3 kg/m3.
`CN(C)C=O` [dimethylformamide]: the kinematic viscosity in data set [1] (298.15 K) came out at 8.15e-07 ± 5.2e-08 m2/s; in data set [1] (303.15 K) it was 7.6e-07 ± 4.9e-08 m2/s; in data set [1] (308.15 K), 7.22e-07 ± 4.7e-08 m2/s; in data set [1] (313.15 K) it was 6.75e-07 ± 4.4e-08 m2/s; in data set [1] (318.15 K), 6.38e-07 ± 4.2e-08 m2/s. The mass density in data set [1] (298.15 K) came to 943.9 ± 2.4 kg/m3; in data set [1] (303.15 K) it was 939.6 ± 2.5 kg/m3; in data set [1] (308.15 K), 934.2 ± 2.6 kg/m3; in data set [1] (313.15 K), 929.9 ± 2.7 kg/m3; in data set [1] (318.15 K), 924.7 ± 2.8 kg/m3.
On to `CN(C)C=O` [dimethylformamide] + OCCOCCO, for which the kinematic viscosity in data set [2] (298.15 K) was found to be 8.15e-07 ± 5.2e-08 m2/s; in data set [2] (303.15 K), 7.6e-07 ± 4.9e-08 m2/s; in data set [2] (308.15 K), 7.22e-07 ± 4.7e-08 m2/s; in data set [2] (313.15 K) it was 6.75e-07 ± 4.4e-08 m2/s; in data set [2] (318.15 K), 6.38e-07 ± 4.2e-08 m2/s. Further, the mass density in data set [2] (298.15 K) turned out to be 943.9 ± 2.4 kg/m3; in data set [2] (303.15 K), 939.6 ± 2.5 kg/m3; in data set [2] (308.15 K) it was 934.2 ± 2.6 kg/m3; in data set [2] (313.15 K) it was 929.9 ± 2.7 kg/m3; in data set [2] (318.15 K), 924.7 ± 2.8 kg/m3.

(Values after the NIST ThermoML archive (doi:10.1016/j.fluid.2014.04.019).)
